From ChEMBL document CHEMBL1671852, “In vitro activities of linezolid against clinical isolates of Mycobacterium tuberculosis complex isolated in Taiwan over 10 years” (2008)
Values after ≈ are worked out from the molar mass of the structure shown.

Key:
[1] = tested on: Mycobacterium tuberculosis; test: Antibacterial activity against multidrug-resistant Mycobacterium tuberculosis by agar proportion method; type: functional
[2] = tested on: Mycobacterium tuberculosis; test: Antibacterial activity against multidrug-resistant Mycobacterium tuberculosis harboring gyrA D94A mutation by agar proportion method; type: functional

CC(=O)NC[C@H]1CN(c2ccc(N3CCOCC3)c(F)c2)C(=O)O1 [LINEZOLID]
MIC50 [1]: 0.5 µg/mL (≈ 1.48 µM) | MIC90 [1]: 0.5 µg/mL (≈ 1.48 µM) | MIC [2]: 4 µg/mL (≈ 11.9 µM)
